This is an account of results in patent US9056858B2, “Indazole and pyrazolopyridine compounds as CCR1 receptor antagonists” (Boehringer Ingelheim International GmbH, priority 2009, dated 2015).

Molecules are shown by their SMILES.

The target in the experiment is T1, CCR1 (Homo sapiens, UniProt P32246).
T1 construct: host or cells: Non-adherent cells
T1 sequence (P32246 1-355): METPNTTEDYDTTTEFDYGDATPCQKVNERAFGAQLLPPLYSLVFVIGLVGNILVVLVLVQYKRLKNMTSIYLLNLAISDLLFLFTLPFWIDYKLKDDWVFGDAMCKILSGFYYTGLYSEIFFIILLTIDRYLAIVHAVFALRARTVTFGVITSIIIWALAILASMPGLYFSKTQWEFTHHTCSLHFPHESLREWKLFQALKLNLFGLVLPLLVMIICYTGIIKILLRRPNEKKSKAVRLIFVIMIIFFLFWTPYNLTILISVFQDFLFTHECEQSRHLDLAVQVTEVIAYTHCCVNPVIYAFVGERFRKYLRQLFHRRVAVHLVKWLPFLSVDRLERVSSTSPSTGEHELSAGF
In words: functional cellular assay measuring calcium flux in CCR1 transfected cells (block of CCR1/MIP-1α interaction). The format is cell-based. To be noted: cells stably expressing recombinant CCR1 and G-alpha-16, MIP-1alpha added at EC80. Here is the method: Compounds are assessed for the ability to block the interaction of CCR1 and MIP-1α in a functional cellular assay measuring calcium flux in CCR1 transfected cells.
Non-adherent cells purchased from Chemicon Corporation (HTS005C), stably expressing recombinant CCR1 and G-alpha-16 are grown in RPMI 1640 medium (Mediatech 10-080-CM) supplemented with 10% FBS, 0.4 mg/mL Geneticin and penicillin/streptomycin. On the day of the assay, the cells are loaded with Calcium 4 dye (Molecular Devices R7448) with Probenecid (Invitrogen P346400) at 8E5 cells/mL for 1 hour at room temperature. After 1 hour, they are seeded in a 384-well tissue culture-treated plate at a density of 20,000 cells/well. Appropriately diluted test compound is added to the well to achieve a top concentration of 3,000 nM (diluted 4-fold with 10 doses total). The final concentration of DMSO is 1%. The buffer is HBSS (Invitrogen 14025) with 20 mM HEPES at pH 7.4. The cells incubate 30 minutes at 37 C and then 30 minutes at room temperature. The plates are transferred to the […] FDSS6000 where MIP-1alpha in 1% BSA is added at the EC80 final concentration. All plates must be read within 4 hours of the start of dye-loading. Wells +/− MIP-1alpha containing diluted DMSO instead of compound serve as the controls. Data are analyzed using Activity Base software.
A general note: Calcium flux is commonly read through the fluorescence of an indicator in the cells.
On to `CN(C)c1cccc(C2(NC(=O)c3cncc4c3cnn4-c3ccc(F)cc3)CC2)n1` [1-(4-Fluoro-phenyl)-1H-pyrazolo[3,4-c]pyridine-4-carboxylic acid [1-(6-dimethylamino-pyridin-2-yl)-cyclopropyl]-amide], for which the IC50 (usually the concentration that gives 50% inhibition) was 3 nM.

`CS(=O)(=O)c1cnc(C2(NC(=O)c3cncc4c3cnn4-c3ccc(F)cc3)CC2)nc1` [1-(4-Fluoro-phenyl)-1H-pyrazolo[3,4-c]pyridine-4-carboxylic acid [1-(5-methanesulfonyl-pyrimidin-2-yl)-cyclopropyl]-amide]: the IC50 amounted to 14 nM.

As to `CC(=O)N(C)c1ccc(C2(NC(=O)c3cncc4c3cnn4-c3ccc(F)cc3)CC2)cn1` [1-(4-Fluoro-phenyl)-1H-pyrazolo[3,4-c]pyridine-4-carboxylic acid {1-[6-(acetyl-methyl-amino)-pyridin-3-yl]-cyclopropyl}-amide], the IC50 was determined as 20 nM.

`CS(=O)(=O)c1cc(C2(NC(=O)c3cccc4c3cnn4-c3ccc(F)cc3)CC2)ccn1` [1-(4-Fluoro-phenyl)-1H-indazole-4-carboxylic acid [1-(2-methanesulfonyl-pyridin-4-yl)-cyclopropyl]-amide]: the IC50 was found to be 4 nM.

Take `COC(=O)C1(NC(=O)c2cccc(C3(NC(=O)c4cncc5c4cnn5-c4ccc(F)cc4)CC3)c2)CC1` [1-[3-(1-{[1-(4-Fluoro-phenyl)-1H-pyrazolo[3,4-c]pyridine-4-carbonyl]-amino}-cyclopropyl)-benzoylamino]-cyclopropanecarboxylic acid methyl ester]: the IC50 is 98 nM.

On to `COc1ccnc(C2(NC(=O)c3cncc4c3cnn4-c3ccc(F)cc3)CC2)c1` [1-(4-Fluoro-phenyl)-1H-pyrazolo[3,4-c]pyridine-4-carboxylic acid [1-(4-methoxy-pyridin-2-yl)-cyclopropyl]-amide], for which the IC50 was 31 nM.

Regarding `O=C(NC1(c2cccc(F)c2)CC1)c1cncc2c1cnn2-c1ccc(F)cc1` [1-(4-Fluoro-phenyl)-1H-pyrazolo[3,4-c]pyridine-4-carboxylic acid [1-(3-fluoro-phenyl)-cyclopropyl]-amide], the IC50 came to 13 nM.

With `O=C(NC1(c2ccncc2)CC1)c1cncc2c1cnn2-c1ccc(F)cc1` [1-(4-Fluoro-phenyl)-1H-pyrazolo[3,4-c]pyridine-4-carboxylic acid (1-pyridin-4-yl-cyclopropyl)-amide], the IC50 is 18 nM.

In the case of `O=C(NC1(c2ccccc2)CC1)c1cncc2c1cnn2-c1ccc(F)cc1` [1-(4-Fluoro-phenyl)-1H-pyrazolo[3,4-c]pyridine-4-carboxylic acid (1-phenyl-cyclopropyl)-amide], the IC50 was 109 nM.

Turning to `Cc1ccc(C2(NC(=O)c3cncc4c3cnn4-c3ccc(F)cc3)CC2)cc1` [1-(4-Fluoro-phenyl)-1H-pyrazolo[3,4-c]pyridine-4-carboxylic acid (1-p-tolyl-cyclopropyl)-amide], the IC50 came to 14 nM.

For `CC(C)(C)OC(=O)NCc1ccc(C2(NC(=O)c3cncc4c3cnn4-c3ccc(F)cc3)CC2)nc1` [[6-(1-{[1-(4-Fluoro-phenyl)-1H-pyrazolo[3,4-c]pyridine-4-carbonyl]-amino}-cyclopropyl)-pyridin-3-ylmethyl]-carbamic acid tert-butyl ester], the IC50 amounted to 81 nM.

`O=C(NC1(c2ccnc(Br)c2)CC1)c1cncc2c1cnn2-c1ccc(F)cc1` [1-(4-Fluoro-phenyl)-1H-pyrazolo[3,4-c]pyridine-4-carboxylic acid [1-(2-bromo-pyridin-4-yl)-cyclopropyl]-amide]: the IC50 is 0.5 nM.

`CS(=O)(=O)c1cc(C(=O)NC2(c3ccnc(S(C)(=O)=O)c3)CC2)c2cnn(-c3ccc(F)cc3)c2c1` [1-(4-Fluoro-phenyl)-6-methanesulfonyl-1H-indazole-4-carboxylic acid [1-(2-methanesulfonyl-pyridin-4-yl)-cyclopropyl]-amide]: the IC50 came out at 7 nM.

On to `NS(=O)(=O)c1cccc(C2(NC(=O)c3cncc4c3cnn4-c3ccc(F)cc3)CC2)c1` [1-(4-Fluoro-phenyl)-1H-pyrazolo[3,4-c]pyridine-4-carboxylic acid [1-(3-sulfamoyl-phenyl)-cyclopropyl]-amide], for which the IC50 was determined as 3 nM.

For `CS(=O)(=O)c1cc(C2(NC(=O)c3cc(C#N)cc4c3cnn4-c3ccc(F)cc3)CC2)ccn1` [6-Cyano-1-(4-fluoro-phenyl)-1H-indazole-4-carboxylic acid [1-(2-methanesulfonyl-pyridin-4-yl)-cyclopropyl]-amide], the IC50 stood at 0.1 nM.

Regarding `COc1ccc(C2(NC(=O)c3cncc4c3cnn4-c3ccc(F)cc3)CC2)cc1` [1-(4-Fluoro-phenyl)-1H-pyrazolo[3,4-c]pyridine-4-carboxylic acid [1-(4-methoxy-phenyl)-cyclopropyl]-amide], the IC50 turned out to be 17 nM.

For `COC(=O)CNC(=O)c1cccc(C2(NC(=O)c3cncc4c3cnn4-c3ccc(F)cc3)CC2)c1` [[3-(1-{[1-(4-Fluoro-phenyl)-1H-pyrazolo[3,4-c]pyridine-4-carbonyl]-amino}-cyclopropyl)-benzoylamino]-acetic acid methyl ester], the IC50 was 5 nM.

For `O=C(NC1(c2ccc(N3CCOCC3)nc2)CC1)c1cncc2c1cnn2-c1ccc(F)cc1` [1-(4-Fluoro-phenyl)-1H-pyrazolo[3,4-c]pyridine-4-carboxylic acid [1-(6-morpholin-4-yl-pyridin-3-yl)-cyclopropyl]-amide], the IC50 was found to be 6 nM.

`CNC(=O)CNC(=O)c1cccc(C2(NC(=O)c3cncc4c3cnn4-c3ccc(F)cc3)CC2)c1` [1-(4-Fluoro-phenyl)-1H-pyrazolo[3,4-c]pyridine-4-carboxylic acid {1-[3-(methylcarbamoylmethyl-carbamoyl)-phenyl]-cyclopropyl}-amide]: the IC50 came out at 78 nM.

For the molecule `O=C(NC1(c2cccc(Cl)c2)CC1)c1cncc2c1cnn2-c1ccc(F)cc1` [1-(4-Fluoro-phenyl)-1H-pyrazolo[3,4-c]pyridine-4-carboxylic acid [1-(3-chloro-phenyl)-cyclopropyl]-amide], the IC50 was found to be 3 nM.

On to `O=C(NC1(c2ccc(F)cc2)CC1)c1cncc2c1cnn2-c1ccc(F)cc1` [1-(4-Fluoro-phenyl)-1H-pyrazolo[3,4-c]pyridine-4-carboxylic acid [1-(4-fluoro-phenyl)-cyclopropyl]-amide], for which the IC50 was 75 nM.

For `CS(=O)(=O)c1ccc(C2(NC(=O)c3cncc4c3cnn4-c3ccc(F)cc3)CC2)o1` [1-(4-Fluoro-phenyl)-1H-pyrazolo[3,4-c]pyridine-4-carboxylic acid [1-(5-methanesulfonyl-furan-2-yl)-cyclopropyl]-amide], the IC50 came out at 4 nM.

Turning to `Cc1ccccc1C1(NC(=O)c2cncc3c2cnn3-c2ccc(F)cc2)CC1` [1-(4-Fluoro-phenyl)-1H-pyrazolo[3,4-c]pyridine-4-carboxylic acid (1-o-tolyl-cyclopropyl)-amide], the half-inhibitory concentration (IC50) amounted to 61 nM.

Consider `NCc1ccnc(C2(NC(=O)c3cncc4c3cnn4-c3ccc(F)cc3)CC2)c1` [1-(4-Fluoro-phenyl)-1H-pyrazolo[3,4-c]pyridine-4-carboxylic acid [1-(4-aminomethyl-pyridin-2-yl)-cyclopropyl]-amide], for which the IC50 amounted to 290 nM.

`N#CCNC(=O)c1cccc(C2(NC(=O)c3cncc4c3cnn4-c3ccc(F)cc3)CC2)c1` [1-(4-Fluoro-phenyl)-1H-pyrazolo[3,4-c]pyridine-4-carboxylic acid {1-[3-(cyanomethyl-carbamoyl)-phenyl]-cyclopropyl}-amide]: the half-maximal inhibitory concentration (IC50) amounted to 35 nM.
